Source: patent publication US6355799B1, “Substituted benzene compounds, process for their preparation, and herbicidal and defoliant compositions containing them” (ISK Americas Incorporated, priority 1997, dated 2002)

How the values were obtained:
Assay type in all cases: in vivo
[1] = test system: redroot pigweed (Amaranthus retroflexus, AMARE); assay: Pre-emerge test, greenhouse herbicide activity screening; settings: pre-emerge, 14 days after application, rating scale 0-100
Procedure, shortened: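 Visual ratings on a 0-100 scale (0 no damage, 100 all plants dead) were taken at 14 days after treatment. Rates of 15-1000 g ai/ha in acetone, 187 l/ha, were sprayed onto soil one day after planting (pre-emerge) or onto 2-3 leaf plants with 0.25% v/v surfactant (post-emerge).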

[2] = test system: barnyardgrass (Echinochloa crus-galli, ECHCG); assay: as above; settings: pre-emerge, 14 days after application, rating scale 0-100
Procedure, shortened: (§1)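 Compounds in acetone were track-sprayed at 15-1000 g ai/ha (187 l/ha) on sandy loam pots: pre-emerge one day after seeding, post-emerge at 2-3 leaf stage with 0.25% v/v non-ionic surfactant. Phytotoxicity was rated 14 days later on a 0 (no damage) to 100 (complete death) scale.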

[3] = test system: green foxtail (Setaria viridis, SETVI); assay: as above; settings: pre-emerge, 14 days after application, rating scale 0-100
Procedure, shortened: as §1

[4] = test system: ivyleaf morningglory (Ipomoea hederacea, IPOHE); assay: as above; settings: pre-emerge, 14 days after application, rating scale 0-100
Procedure, shortened: as §1

[5] = test system: johnsongrass (Sorghum halepense, SORHA); assay: as above; settings: pre-emerge, 14 days after application, rating scale 0-100
Procedure, shortened: as §1

[6] = test system: lambsquarters (Chenopodium album, CHEAL); assay: as above; settings: pre-emerge, 14 days after application, rating scale 0-100
Procedure, shortened: as §1

[7] = test system: large crabgrass (Digitaria sanguinalis, DIGSA); assay: as above; settings: pre-emerge, 14 days after application, rating scale 0-100
Procedure, shortened: as §1

[8] = test system: sicklepod (Cassia obtusifolia, CASOB); assay: as above; settings: pre-emerge, 14 days after application, rating scale 0-100
Procedure, shortened: as §1

[9] = test system: velvetleaf (Abutilon theophrasti, ABUTH); assay: as above; settings: pre-emerge, 14 days after application, rating scale 0-100
Procedure, shortened: as §1

[10] = test system: field corn (Zea mays L., var. Dekalb 535, CORN); assay: Pre-emerge test, crop safety; settings: pre-emerge, 14 days after application, rating scale 0-100
Procedure, shortened: (§2)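 Fourteen days after spraying, crop and weed injury was graded visually from 0, no effect, to 100, every plant dead. Test substances were dissolved in acetone and applied at 15–1000 g ai/ha with a flat-fan nozzle. Application was either pre-emergence, one day after sowing, or post-emergence at the 2–3 leaf stage.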

[11] = test system: upland rice (Oryza sp., var. Tebonnet, RICE); assay: Pre-emerge test, crop safety; settings: pre-emerge, 14 days after application, rating scale 0-100
Procedure, shortened: as §2

[12] = test system: barnyardgrass (Echinochloa crus-galli, ECHCG); assay: Post-emerge test, greenhouse herbicide activity screening; settings: post-emerge, 14 days after application, rating scale 0-100
Procedure, shortened: (§3)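 Compounds in acetone were track-sprayed at 187 l/ha, 15–1000 g ai/ha, onto sandy loam pots. Pre-emerge seeds were sown one day before spraying, with surface watering afterwards. Post-emerge plants were at the 2–3 leaf stage and sprayed with 0.25% v/v non-ionic surfactant. Injury was rated 0–100 at 14 days.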

[13] = test system: green foxtail (Setaria viridis, SETVI); assay: as above; settings: post-emerge, 14 days after application, rating scale 0-100
Procedure, shortened: as §3

[14] = test system: ivyleaf morningglory (Ipomoea hederacea, IPOHE); assay: as above; settings: post-emerge, 14 days after application, rating scale 0-100
Procedure, shortened: as §3

[15] = test system: johnsongrass (Sorghum halepense, SORHA); assay: as above; settings: post-emerge, 14 days after application, rating scale 0-100
Procedure, shortened: as §3

[16] = test system: lambsquarters (Chenopodium album, CHEAL); assay: as above; settings: post-emerge, 14 days after application, rating scale 0-100
Procedure, shortened: as §3

[17] = test system: large crabgrass (Digitaria sanguinalis, DIGSA); assay: as above; settings: post-emerge, 14 days after application, rating scale 0-100
Procedure, shortened: as §3

[18] = test system: redroot pigweed (Amaranthus retroflexus, AMARE); assay: as above; settings: post-emerge, 14 days after application
Procedure, shortened: as §3

[19] = test system: sicklepod (Cassia obtusifolia, CASOB); assay: as above; settings: post-emerge, 14 days after application, rating scale 0-100
Procedure, shortened: as §3

[20] = test system: velvetleaf (Abutilon theophrasti, ABUTH); assay: as above; settings: post-emerge, 14 days after application, rating scale 0-100
Procedure, shortened: as §3

[21] = test system: field corn (Zea mays L., var. Dekalb 535, CORN); assay: Post-emerge test, crop safety; settings: post-emerge, 14 days after application, rating scale 0-100
Procedure, shortened: as §1

[22] = test system: upland rice (Oryza sp., var. Tebonnet, RICE); assay: Post-emerge test, crop safety; settings: post-emerge, 14 days after application, rating scale 0-100
Procedure, shortened: as §1

`COc1c(Cl)cc(F)c(-n2c(=O)cc(C(F)(F)F)n(C)c2=O)c1NN=CCc1ccccc1` [15-15] was tested, and the “phytotoxicity rating AMARE” value ([1]; 63 g ai/ha) was 100, the “phytotoxicity rating AMARE” value ([1]; 250 g ai/ha) was 100 and the “phytotoxicity rating ECHCG” value ([2]; 63 g ai/ha) was 100. For the same compound, the “phytotoxicity rating ECHCG” value ([2]; 250 g ai/ha) was 100, the “phytotoxicity rating SETVI” value ([3]; 63 g ai/ha) was 100 and the “phytotoxicity rating SETVI” value ([3]; 250 g ai/ha) was 100. The “phytotoxicity rating IPOHE” value ([4]; 63 g ai/ha) was 100, the “phytotoxicity rating IPOHE” value ([4]; 250 g ai/ha) was 100 and the “phytotoxicity rating SORHA” value ([5]; 63 g ai/ha) was 100. For the same compound, the “phytotoxicity rating SORHA” value ([5]; 250 g ai/ha) was 100, the “phytotoxicity rating CHEAL” value ([6]; 63 g ai/ha) was 100 and the “phytotoxicity rating CHEAL” value ([6]; 250 g ai/ha) was 100. For the same compound, the “phytotoxicity rating DIGSA” value ([7]; 63 g ai/ha) was 100, the “phytotoxicity rating DIGSA” value ([7]; 250 g ai/ha) was 100 and the “phytotoxicity rating CASOB” value ([8]; 63 g ai/ha) was 100. For the same compound, the “phytotoxicity rating CASOB” value ([8]; 250 g ai/ha) was 100, the “phytotoxicity rating ABUTH” value ([9]; 63 g ai/ha) was 100 and the “phytotoxicity rating ABUTH” value ([9]; 250 g ai/ha) was 100. For the same compound, the “phytotoxicity rating CORN” value ([10]; 63 g ai/ha) was 95, the “phytotoxicity rating CORN” value ([10]; 250 g ai/ha) was 100 and the “phytotoxicity rating RICE” value ([11]; 63 g ai/ha) was 95. The “phytotoxicity rating RICE” value ([11]; 250 g ai/ha) was 100, the “Post-emerge Herbicidal Activity ECHCG (phytotoxicity rating)” value ([12]; 63 g ai/ha) was 30 and the “Post-emerge Herbicidal Activity ECHCG (phytotoxicity rating)” value ([12]; 250 g ai/ha) was 100. The “Post-emerge Herbicidal Activity SETVI (phytotoxicity rating)” value ([13]; 63 g ai/ha) was 40, the “Post-emerge Herbicidal Activity SETVI (phytotoxicity rating)” value ([13]; 250 g ai/ha) was 95 and the “Post-emerge Herbicidal Activity IPOHE (phytotoxicity rating)” value ([14]; 63 g ai/ha) was 90. The “Post-emerge Herbicidal Activity IPOHE (phytotoxicity rating)” value ([14]; 250 g ai/ha) was 100, the “Post-emerge Herbicidal Activity SORHA (phytotoxicity rating)” value ([15]; 63 g ai/ha) was 30 and the “Post-emerge Herbicidal Activity SORHA (phytotoxicity rating)” value ([15]; 250 g ai/ha) was 99. The “Post-emerge Herbicidal Activity CHEAL (phytotoxicity rating)” value ([16]; 63 g ai/ha) was 100, the “Post-emerge Herbicidal Activity CHEAL (phytotoxicity rating)” value ([16]; 250 g ai/ha) was 100 and the “Post-emerge Herbicidal Activity DIGSA (phytotoxicity rating)” value ([17]; 63 g ai/ha) was 40. The “Post-emerge Herbicidal Activity DIGSA (phytotoxicity rating)” value ([17]; 250 g ai/ha) was 100, the “Post-emerge Herbicidal Activity AMARE (phytotoxicity rating)” value ([18]; 63 g ai/ha, rating scale 0-100 (0 no damage, 100 complete death)) was 100 and the “Post-emerge Herbicidal Activity AMARE (phytotoxicity rating)” value ([18]; 250 g ai/ha, rating scale 0-100) was 100. The “Post-emerge Herbicidal Activity CASOB (phytotoxicity rating)” value ([19]; 63 g ai/ha) was 80, the “Post-emerge Herbicidal Activity CASOB (phytotoxicity rating)” value ([19]; 250 g ai/ha) was 100 and the “Post-emerge Herbicidal Activity ABUTH (phytotoxicity rating)” value ([20]; 63 g ai/ha) was 100. For the same compound, the “Post-emerge Herbicidal Activity ABUTH (phytotoxicity rating)” value ([20]; 250 g ai/ha) was 100, the “Post-emerge Herbicidal Activity CORN (crop damage rating)” value ([21]; 63 g ai/ha) was 45 and the “Post-emerge Herbicidal Activity CORN (crop damage rating)” value ([21]; 250 g ai/ha) was 90. The “Post-emerge Herbicidal Activity RICE (crop damage rating)” value ([22]; 63 g ai/ha) was 70 and the “Post-emerge Herbicidal Activity RICE (crop damage rating)” value ([22]; 250 g ai/ha) was 95.
